Data published in PubChem BioAssay (NCI).
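Compound exposure: 48 hours, 5 concentrations, 96-well plates. GI50 marks 50% less growth. TGI marks complete inhibition of growth.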

How the values were obtained:
Assay in all cases: NCI anticancer screen, dose series, 48 h
[1] = system: NCI/ADR-RES ovarian
[2] = system: MOLT-4 leukemia
[3] = system: NCI-H23 lung
[4] = system: SN12C renal
[5] = system: RPMI-8226 leukemia
[6] = system: K-562 leukemia
[7] = system: OVCAR-4 ovarian
[8] = system: MDA-MB-231 breast
[9] = system: HCT-15 colon
[10] = system: TK-10 renal

| Structure (SMILES) | GI50 [1] [µM] | TGI [1] [µM] | GI50 [2] [µM] | TGI [2] [µM] | GI50 [3] [µM] | TGI [3] [µM] | GI50 [4] [µM] | TGI [4] [µM] | GI50 [5] [µM] | TGI [5] [µM] | GI50 [6] [µM] | TGI [6] [µM] | GI50 [7] [µM] | TGI [7] [µM] | GI50 [8] [µM] | TGI [8] [µM] | GI50 [9] [µM] | TGI [9] [µM] | TGI [10] [µM] | GI50 [10] [µM] |
| --- | --- | --- | --- | --- | --- | --- | --- | --- | --- | --- | --- | --- | --- | --- | --- | --- | --- | --- | --- | --- |
| Clc1ccc(Nc2nnc(COc3ccccc3)c3ccccc23)cc1 | 2.62 | 16.6 | 1.06 | 6.7 | 1.56 | 7.87 | 2.12 | 8.07 | 1.37 | 6.96 | 1.85 | 11.9 | 2.09 | 25 | 1.28 | 6.9 | 2.05 | 6.75 | – | – |
| COc1ccc(C2[C@@H](Cl)C(=O)N2c2ccc(OC)cc2)cc1 (some centres not stated) | – | – | – | > 100 | – | > 100 | – | > 100 | – | > 100 | – | > 100 | – | – | – | – | – | – | > 100 | – |
| O=c1[nH]c(C2CCCCC2)nc2ccc(Cl)cc12 | – | – | – | > 100 | – | > 100 | – | > 100 | – | > 100 | – | > 100 | – | – | – | – | – | > 100 | > 100 | – |
| OCC1OC(NO)C(O)C(O)C1O (configuration not stated) | – | – | – | > 100 | – | > 100 | – | > 100 | – | > 100 | – | > 100 | – | > 100 | – | – | – | > 100 | > 100 | – |
| O=S(=O)(O)c1ccc([Se][Se]c2ccc(S(=O)(=O)O)cc2)cc1 | – | – | – | > 100 | – | > 100 | – | > 100 | – | > 100 | – | > 100 | – | > 100 | – | – | – | > 100 | > 100 | – |
| COc1ccc(NC(=O)CC2SC(=Nc3ccc(Cl)cc3C)NC2=O)c([N+](=O)[O-])c1 (configuration not stated) | – | – | – | > 100 | – | > 100 | – | > 100 | – | > 100 | – | > 100 | – | > 100 | – | – | – | > 100 | > 100 | – |
| CCn1c(C)nc([N+](=O)[O-])c1Sc1ncc[nH]1 | – | – | – | 76.8 | – | 99.6 | – | > 100 | – | > 100 | – | > 100 | – | > 100 | – | – | – | – | > 100 | – |
| CCCCCCCC(=O)[O-].N.N.N.N.N.[Co+3].[O-][Cl+3]([O-])([O-])[O-] | – | – | 53.5 | > 100 | > 100 | > 100 | > 100 | > 100 | > 100 | > 100 | > 100 | > 100 | > 100 | > 100 | – | – | > 100 | > 100 | > 100 | > 100 |
| O=S1c2ccccc2N=C(c2cccs2)CC1c1ccccc1O (configuration not stated) | – | – | – | > 100 | – | > 100 | – | > 100 | – | > 100 | – | > 100 | – | > 100 | – | – | – | > 100 | > 100 | – |
| c1ccc2cc(Cn3c(-c4cccc5ccccc45)[n+](Cc4ccc5ccccc5c4)c4c5ccccc5c5ccccc5c43)ccc2c1 | 1.77 | 4.71 | 0.385 | 2.09 | 0.248 | 1.15 | – | – | 0.101 | 0.861 | 0.224 | > 100 | 0.324 | 1.41 | – | – | 0.398 | 1.88 | – | – |
| Oc1ccccc1-c1cnnc(-c2ccccc2O)c1 | – | – | – | 66.5 | – | – | – | > 100 | – | 51.2 | – | > 100 | – | > 100 | – | – | – | – | > 100 | – |
| [N-]=[N+]=NCCCn1c2c(c3ccccc3c1=O)C(=O)c1cc3c(cc1-2)OCO3 | 90.9 | > 100 | 19.6 | > 100 | – | – | > 100 | > 100 | > 100 | > 100 | 25.9 | > 100 | – | – | > 100 | > 100 | > 100 | > 100 | > 100 | 45.3 |
| O=S1(=O)CC#CC[C@@H](CO)[C@@H](CO)CC#CC1 | – | – | – | > 100 | – | > 100 | – | > 100 | – | – | – | > 100 | – | > 100 | – | – | – | > 100 | > 100 | – |
| Nc1nc(N)c2c(n1)NC(c1ccc(Cl)cc1)C1CCc3ccccc3C1=N2 (configuration not stated) | 5.53 | 18.2 | – | – | 4.88 | 18 | 7.68 | 21.7 | 2.75 | 11.5 | – | – | 6.45 | 21 | 9.73 | 21.8 | 4.16 | 18.5 | 23.2 | 8.2 |
| CCCCCCCN(CCCCCCC)C(=N)c1ccc(OC)c2ccccc12 | 1.46 | 3.05 | – | – | 1.1 | 2.53 | 1.24 | 2.76 | – | – | – | – | 1.36 | 3.02 | – | – | – | – | 2.88 | 1.46 |
| COC1C[C@H](O[C@@H]2C[C@H](O[C@@H]3C[C@H](O[C@@H]4C(=O)c5c(cc6cc(O[C@H]7C[C@@H](O[C@H]8C[C@@H](O)[C@H](O)C(C)O8)[C@H](O)C(C)O7)c(C)c(O)c6c5O)C[C@H]4C(OC)C(=O)[C@@H](O)[C@@H](C)O)OC(C)[C@H]3O)OC(C)[C@@H]2O)OC(C)[C@@H]1O (some centres not stated) | > 32.5 | > 32.5 | 0.111 | > 32.5 | 0.0899 | 0.695 | 0.113 | > 32.5 | – | – | 0.119 | > 32.5 | 0.134 | 2.76 | – | – | 2.19 | > 32.5 | 6.4 | 0.173 |
| Fc1ccc(Nc2ccnc(N3CCN(c4ccnc5cc(Cl)ccc45)CC3)n2)cc1 | 2.24 | 6.41 | 2.76 | 8.37 | – | – | 2.57 | > 100 | 2.19 | 6.22 | 2.18 | 6.62 | 2.36 | > 100 | 1.51 | 4.33 | 2.3 | 7.93 | – | – |
| C=C1C(=O)O[C@H]2[C@H]1CC/C(COC(=O)NCCc1ccc(Br)cc1)=C\CC[C@@]1(C)O[C@@H]21 | 2.26 | 6.74 | 1.69 | 4.8 | 1.72 | 3.84 | – | – | 0.624 | 2.89 | 0.535 | 5.61 | 1.56 | 3.29 | 1.42 | 3.08 | 1.01 | 2.33 | 3.12 | 1.73 |
| COC(=O)/C(=C1\OC(=O)C(c2ccc(Cl)cc2)=C1O)c1ccc(Cl)cc1 | – | – | – | 65.5 | – | 40.3 | – | > 100 | – | 55.2 | – | 86.9 | – | > 100 | – | – | – | – | 75.5 | – |
